Like-named read-outs stand apart in the source and are kept apart here. *1 amine or outer side, *2 acyl side, *3 side chain or, on linkers, in order; H or OH if unused. Where a SMILES comes first, the peptide text is derived from it. Bridges are numbered along the chain shown (N, C = ends). Side-chain parts run from the residue outwards. [ ]: non-standard residue; d: D form. The star is where a group is joined. X12 = N=c1ccc2c(-c3ccc(C(=O)NCCCOCCOCCOCCCN*)cc3C(=O)O)c3ccc(N)c(S(=O)(=O)O)c3oc-2c1S(=O)(=O)O; DOTA(Lu) = O=C1CN2CCN3CCN(CC(=O)*)CCN(CC2)CC(=O)[O][Lu]([O]1)[O]C(=O)C3; X11 = O=C(CCCC[C@@H]1SC[C@@H]2NC(=O)N[C@@H]21)NCCCOCCOCCOCCCN*; DOTA = O=C(O)CN1CCN(CC(=O)O)CCN(CC(=O)*)CCN(CC(=O)O)CC1; Pro(cis-4-F) = O=C(O)[C@@H]1C[C@H](F)CN1; Dopa = N[C@@H](Cc1ccc(O)c(O)c1)C(=O)O; Hyp = O=C(O)[C@@H]1C[C@@H](O)CN1; Pentanoyl(4-Me) = CC(C)CCC(=O)*; X10 = CC(C)C[C@@H](C(=O)*)N(C)C; Cit = NC(=O)NCCC[C@H](N)C(=O)O; Butoxycarbonyl = CCCCOC(=O)*; NMeK = CN[C@@H](CCCCN)C(=O)O; Phg = N[C@H](C(=O)O)c1ccccc1; Suc = O=C(CCC(=O)[*:2])[*:1]; Nva = CCC[C@H](N)C(=O)O; Pentanoyl = CCCCC(=O)*; Ahx = NCCCCCC(=O)O; βAla = NCCC(=O)O; Sar = CNCC(=O)O
What was measured:
[1] = molecular target: T1, human uPAR (uPAR-Fc) (Homo sapiens, UniProt Q03405); test: Surface plasmon resonance (SPR) assay, single cycle kinetics; type: binding
T1 construct: comprising amino acids Leu23-Arg303 according to UniProt entry Q03405.1; purchased R&D Systems 10378-UK-100
T1 sequence (Q03405 23-303): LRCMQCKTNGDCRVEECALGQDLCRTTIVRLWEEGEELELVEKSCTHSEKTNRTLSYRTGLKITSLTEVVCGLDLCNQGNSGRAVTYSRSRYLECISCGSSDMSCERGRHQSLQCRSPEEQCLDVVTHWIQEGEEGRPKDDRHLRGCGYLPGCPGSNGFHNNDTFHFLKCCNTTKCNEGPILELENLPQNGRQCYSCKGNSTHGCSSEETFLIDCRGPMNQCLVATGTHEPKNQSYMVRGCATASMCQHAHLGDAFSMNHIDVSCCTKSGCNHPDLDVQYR
Method: Surface plasmon resonance (SPR) is an optical technique used to measure molecular interactions in real time. SPR occur when plane-polarized light hits a metal film under total internal reflection conditions. SPR signal is directly dependent on the refractive index of the medium on the sensor chip. In an SPR experiment, one molecule (i.e. uPAR) is immobilized on a sensor chip and binding to a second molecule (i.e. test compounds) is measured under flow. The binding of the compound on the surface changes the refractive index. In responses the reflection angle changes as compounds bind and dissociate on the immobilized protein on the surface. This response is measured in resonance units (RU). The RUs are proportional to the number of molecules bound to the surface. […] Kinetic binding constants and equilibrium binding constants can be derived from the sensorgrams.
Surface plasmon resonance (SPR) studies were performed using a Biacore™ T200 or S200 SPR system (Cytiva, formerly GE Life Sciences) to assess binding of compounds to recombinant uPAR protein.
In this example recombinant protein comprising the extracellular domains of human uPAR (uPAR-Fc, R&D Systems, CAT 10378-UK-100, comprising amino acids Leu23-Arg303 according to UniProt entry Q03405.1 and Fc region of human IgG1 at the C-terminus) was immobilized on a Protein A-Chip (Cytiva, CAT 29127555) according to the supplier's instructions. uPAR-Fc was diluted in Running Buffer (10 mM HEPES, 150 mM NaCl, 50 µM EDTA, 0.1% DMSO, 0.05% Tween-20, pH 7.4) to a final concentration of 100 nM and then flushed over the Protein A-Chip to immobilized ~2000 RUs.
Stock solutions of test compounds were prepared by dissolving each compound in DMSO. DMSO stock solution were diluted 1: 1000 in Running Buffer without DMSO. Further sequential dilutions were made with Running Buffer containing 0.1% DMSO. SPR binding analyses were performed in Single Cycle Kinetic (SCK) mode at 25°C. Flow cell without immobilized uPAR-Fc served as reference flow cell. The chip was regenerated with 10 mM Glycine, pH 1,5 to remove the uPAR-Fc from the chip surface after each SCK run. After every three SCK measurements, a blank run with Running Buffer instead of test compound was included to correct for baseline drifts (double reference substraction method). Table 11: SPR protocol steps for SCK with uPAR-Fc immobilized on a Protein A-Chip.
For each test compound, SPR raw data sensorgrams were recorded using the Biacore™ T200 or S200 control software. Sensorgrams were processed and analyzed with the Biacore™ Insight Evaluation software. […] The reference subtracted sensorgram for each test compound was further corrected for baseline drift by subtracting the sensorgram of a reference subtracted blank run (Running Buffer only). The dissociation constant (KD) was calculated from the double reference subtracted sensorgrams using the 1:1 Langmuir binding model. The pKD value (negative decadic logarithm of dissociation constant) was calculated using Microsoft Excel.

[2] = molecular target: T2, uPAR-expressing HEC-265 human endometrial adenocarcinoma cells (Homo sapiens, UniProt Q03405); test: Competitive FACS binding assay; conditions: pIC50 category of FACS binding
T2 construct: Cell surface uPAR-expressing HEC-265 human endometrial adenocarcinoma cells; host or cells: HEC-265
T2 sequence (Q03405 23-335): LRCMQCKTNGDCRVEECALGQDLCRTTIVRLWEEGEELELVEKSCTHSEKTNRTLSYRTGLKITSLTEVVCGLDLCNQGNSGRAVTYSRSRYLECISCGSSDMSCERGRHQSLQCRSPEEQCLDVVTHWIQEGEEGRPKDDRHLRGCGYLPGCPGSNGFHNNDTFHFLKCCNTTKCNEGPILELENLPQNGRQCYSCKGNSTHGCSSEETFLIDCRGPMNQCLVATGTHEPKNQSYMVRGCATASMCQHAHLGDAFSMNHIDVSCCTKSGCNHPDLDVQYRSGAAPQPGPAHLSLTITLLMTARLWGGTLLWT
Method: In order to determine binding of compounds according to the present invention to uPAR-expressing cells, a competitive FACS binding assay was established.
Cell surface uPAR-expressing HEC-265 human endometrial adenocarcinoma cells (Japanese Collection of Research Bioresources, #JCRB1142) were cultured in MEM Eagle with stable glutamine (Pan Biotech, #P04-09500) including 15% fetal bovine serum (Pan Biotech, #P30-3306) and 100 U/ml penicillin and 100 µg/mL streptomycin (Pan Biotech, #P06-07100). Cells were detached with Cell Dissociation Buffer (Thermo Scientific, #13151014) and washed in FACS buffer (PBS (Pan Biotech, #P04-36500) including 1% BSA (SeraCare, #AP-4510-80). Cells were diluted in FACS buffer to a final concentration of 500.000 cells per ml and 200 µl of the cell suspension are transferred to a u-shaped non-binding 96-well plate (Greiner Bio-One, #650901).
For IC50 determination, cells were incubated with 10 nM Bio--Ttds--Ttds--Ttds--Ttds-D-Cha-FsrYLWS-NH2) in the presence of increasing concentrations of non-labeled test compounds at 4°C for 1 hour. Cells were washed twice in FACS buffer. An additional incubation step with 1 µg/mL APC-Streptavidin (Miltenyi; #130-106-791) in 50 µL FACS buffer for 30 minutes on ice was performed followed by two washes with FACS buffer. Cells were resuspended in 200 µl FACS buffer and analyzed in an Attune NxT flow cytometer. Median fluorescence intensities (APC channel) were calculated by Attune NxT software and plotted against peptide concentrations. Four parameter logistic (4PL) curve fitting and pIC50 calculations were performed using ActivityBase software.

[3] = pKD category for uPAR SPR activity assay, uPAR-Fc on Protein A-Chip, 25°C, read-out: pKD CAT (converted)
[4] = pKD category for uPAR SPR activity assay, uPAR-Fc on Protein A-Chip, single cycle kinetics, 25°C, read-out: pKD CAT (converted)

Row | Kd [1, 3] [nM] | Compound | IC50 [2] [nM] | also measured
1 | > 100 | CC[C@H](C)[C@@H]1NC(=O)[C@@H](C)NC(=O)[C@@H]2CCCN2C(=O)[C@H](Cc2ccccc2)NC(=O)[C@H](Cc2ccc(O)cc2)NC(=O)[C@H](CCC(N)=O)NC(=O)[C@@H](CCCCNC(=O)CN2CCN(CC(=O)O)CCN(CC(=O)O)CCN(CC(=O)O)CC2)NC(=O)[C@@H](NC(=O)CCC(C)C)CSSC[C@@H](C(N)=O)NC(=O)[C@H](CC(C)C)NC1=O [UPAR-130, iHex-[Cys-lys(DOTA)-Gln-Tyr-Phe-Pro-ala-Ile-Leu-Cys]-NH2] ({Pentanoyl(4-Me)}-C[dK](DOTA)QYFP[dA]ILC-NH2; disulfide 1-10) | ≥ 126 | 
2 | > 100 | CC[C@H](C)[C@@H]1NC(=O)[C@@H](C)NC(=O)[C@@H]2CCCN2C(=O)[C@H](Cc2ccccc2)NC(=O)[C@H](Cc2ccc(O)cc2)NC(=O)[C@H](CCC(N)=O)NC(=O)[C@H](CCCNC(N)=O)NC(=O)[C@@H](NC(=O)CCC(C)C)CSSC[C@@H](C(=O)O)NC(=O)[C@H](CC(C)C)NC1=O [UPAR-131, iHex-[Cys-Cit-Gln-Tyr-Phe-Pro-ala-Ile-Leu-Cys]-OH] ({Pentanoyl(4-Me)}-C[Cit]QYFP[dA]ILC-OH; disulfide 1-10) | ≥ 126 | 
3 | 10 to 100 | CCCCC(=O)N[C@H]1CSSC[C@@H](C(N)=O)NC(=O)[C@H](CCC)NC(=O)[C@H]([C@@H](C)CC)NC(=O)[C@H](CCCCN)N(C)C(=O)[C@@H]2CCCN2C(=O)[C@H](Cc2ccccc2)NC(=O)[C@H](Cc2ccc(O)cc2)NC(=O)[C@H](CCCCNC(=O)CCC(=O)NCCCOCCOCCOCCCNC(=O)CCCC[C@@H]2SC[C@@H]3NC(=O)N[C@@H]32)NC(=O)[C@H](CCCNC(N)=O)NC1=O [UPAR-317, Pent-[Cys-Cit-Lys(Bio-Ttds)-Tyr-Phe-Pro-Nmk-Ile-Nva-Cys]-NH2] (Pentanoyl-C[Cit]K([Suc-X11])YFP[NMeK]I[Nva]C-NH2; disulfide 1-10) |  | 
4 |  | CCCCOC(=O)N[C@H]1CSSC[C@@H](C(N)=O)NC(=O)[C@H](CCC)NC(=O)[C@H]([C@@H](C)CC)NC(=O)[C@@H]2C[C@@H](O)CN2C(=O)[C@@H]2C[C@H](F)CN2C(=O)[C@H](Cc2ccccc2)NC(=O)[C@H](Cc2ccc(O)c(O)c2)NC(=O)[C@H](CCCCNC(=O)CCC(=O)NCCCOCCOCCOCCCNC(=O)c2ccc(-c3c4ccc(=N)c(S(=O)(=O)O)c-4oc4c(S(=O)(=O)O)c(N)ccc34)c(C(=O)O)c2)NC(=O)[C@H]([C@@H](C)O)NC1=O [UPAR-479, Butoc-[Cys-Thr-Lys(AF488-Ttds)-Dopa-Phe-4Cfp-Hyp-Ile-Nva-Cys]-NH2] (Butoxycarbonyl-CTK([Suc-X12])[Dopa]F[Pro(cis-4-F)][Hyp]I[Nva]C-NH2; disulfide 1-10) |  | Kd [1]: < 1.58 nM
5 |  | CCC[C@@H]1NC(=O)[C@H]([C@@H](C)CC)NC(=O)[C@@H]2C[C@@H](O)CN2C(=O)[C@@H]2CCCN2C(=O)[C@H](Cc2ccccc2)NC(=O)[C@H](Cc2ccc(O)cc2)NC(=O)[C@H](CCC(N)=O)NC(=O)[C@H](CCCNC(=N)N)NC(=O)[C@@H](NC(=O)[C@@H](NC(C)=O)c2ccccc2)CSSC[C@@H](C(N)=O)NC1=O [UPAR-486, Ac-Phg-[Cys-Arg-Gln-Tyr-Phe-Pro-Hyp-Ile-Nva-Cys]-NH2] (Ac-[Phg]CRQYFP[Hyp]I[Nva]C-NH2; disulfide 2-11) |  | Kd [1, 4]: < 1.58 nM
6 |  | CCC[C@@H]1NC(=O)[C@H]([C@@H](C)CC)NC(=O)[C@@H]2C[C@@H](O)CN2C(=O)[C@@H]2CCCN2C(=O)[C@H](Cc2ccccc2)NC(=O)[C@H](Cc2ccc(O)cc2)NC(=O)[C@H](CCC(N)=O)NC(=O)[C@H](CCCNC(=N)N)NC(=O)[C@@H](NC(=O)[C@H](CC(C)C)N(C)C)CSSC[C@@H](C(N)=O)NC1=O [UPAR-487, Me-Nml-[Cys-Arg-Gln-Tyr-Phe-Pro-Hyp-Ile-Nva-Cys]-NH2] (X10-CRQYFP[Hyp]I[Nva]C-NH2; disulfide 1-10) |  | Kd [1, 4]: 1.58 to 10 nM
7 |  | CCC[C@@H]1NC(=O)[C@H]([C@@H](C)CC)NC(=O)[C@@H]2C[C@@H](O)CN2C(=O)[C@@H]2CCCN2C(=O)[C@H](Cc2ccccc2)NC(=O)[C@H](Cc2ccc(O)cc2)NC(=O)[C@H](CCC(N)=O)NC(=O)[C@H](CCCNC(=N)N)NC(=O)[C@@H](NC(=O)[C@H](Cc2ccccc2)NC(C)=O)CSSC[C@@H](C(N)=O)NC1=O [UPAR-488, Ac-Phe-[Cys-Arg-Gln-Tyr-Phe-Pro-Hyp-Ile-Nva-Cys]-NH2] (Ac-FCRQYFP[Hyp]I[Nva]C-NH2; disulfide 2-11) |  | Kd [1, 4]: < 1.58 nM
8 |  | LuDOTA-Ahx-Leu-[Cys-Arg-Gln-Tyr-Phe-Pro-ala-Ile-Leu-Cys]-NH2 ({DOTA(Lu)}-[Ahx]LCRQYFP[dA]ILC-NH2; disulfide 3-12; not fully specified; printed as LuDOTA-Ahx-Leu-[Cys-Arg-Gln-Tyr-Phe-Pro-ala-Ile-Leu-Cys]-NH₂; also: Lu(III) complexed by DOTA) [UPAR-170] |  | pIC50 CAT [2]: A (pIC50 values ≥8.0)
9 |  | Pent-[Cys-Cit-Lys(LuDOTA)-Tyr-Phe-Pro-Nmg-Ile-Nva-Cys]-NH2 (Pentanoyl-C[Cit]K(DOTA(Lu))YFP[Sar]I[Nva]C-NH2; disulfide 1-10; not fully specified; also: Lu(III) complexed by DOTA) [UPAR-348] |  | pIC50 CAT [2]: A (pIC50 values ≥8.0)

Row | Compound | Kd [1, 3] [nM] | IC50 [2] [nM] | also measured
10 | CCCCOC(=O)N[C@H]1CSSC[C@@H](C(=O)NCCC(=O)O)NC(=O)[C@H](CCC)NC(=O)[C@H]([C@@H](C)CC)NC(=O)[C@@H]2C[C@@H](O)CN2C(=O)[C@@H]2C[C@H](F)CN2C(=O)[C@H](Cc2ccccc2)NC(=O)[C@H](Cc2ccc(O)cc2)NC(=O)[C@H](CCCCNC(=O)CN2CCN(CC(=O)O)CCN(CC(=O)O)CCN(CC(=O)O)CC2)NC(=O)[C@H]([C@@H](C)O)NC1=O [UPAR-127, Butoc-[Cys-Thr-Lys(DOTA)-Tyr-Phe-4Cfp-Hyp-Ile-Nva-Cys]-Bal-OH] (Butoxycarbonyl-CTK(DOTA)YF[Pro(cis-4-F)][Hyp]I[Nva]C[βAla]-OH; disulfide 1-10) | 1.58 to 10 | ≤ 10 | 
11 | CCCCOC(=O)N[C@H]1CSSC[C@@H](C(N)=O)NC(=O)[C@H](CCC)NC(=O)[C@H]([C@@H](C)CC)NC(=O)[C@@H]2C[C@@H](O)CN2C(=O)[C@@H]2C[C@@H](O)CN2C(=O)[C@H](Cc2ccccc2)NC(=O)[C@H](Cc2ccc(O)cc2)NC(=O)[C@H](CCCCNC(=O)CN2CCN(CC(=O)O)CCN(CC(=O)O)CCN(CC(=O)O)CC2)NC(=O)[C@H]([C@@H](C)O)NC1=O [UPAR-128, Butoc-[Cys-Thr-Lys(DOTA)-Tyr-Phe-Hyp-Hyp-Ile-Nva-Cys]-NH2] (Butoxycarbonyl-CTK(DOTA)YF[Hyp][Hyp]I[Nva]C-NH2; disulfide 1-10) | < 1.58 | ≤ 10 | 

— patent EP4610269A1, “UROKINASE PLASMINOGEN ACTIVATOR SURFACE RECEPTOR (UPAR) LIGANDS FOR DIAGNOSTIC OR THERAPEUTIC USE” (3B Pharmaceuticals GmbH, priority 2024, dated 2025)
